Data published in ChEMBL document CHEMBL4428049, “Design and synthesis of aminothiazole modulators of the gamma-secretase enzyme” (Bioorg Med Chem Lett, 2016).
Converted amounts (≈) assume the structure as drawn.

Legend:
Gamma-secretase = assay: Modulation of gamma-secretase in human SH-SY5Y cells overexpressing wild-type human APP751 assessed as inhibition of Abeta42 level after 24 hrs by ELISA; type: cell-based
[1] = Kinetic solubility in PBS buffer at pH 7.4 by UV/vis absorbance analysis; type: physicochemical; conditions: read-out: Kinetic_solubility
[2] = Modulation of gamma-secretase in CHO cells expressing human APP695 assessed as inhibition of Abeta42 level after 20 hrs by FRET HTS assay; type: cell-based; conditions: Cricetulus griseus

Row | IC50 (Gamma-secretase) [nM] | solubility kinetic [1] [µM] | IC50 [2] [nM] | SMILES
1 | 87 | < 1.6 |  | Cc1cn(-c2ccc(-c3csc(Nc4cc(C(C)(C)C)nn4CC(F)(F)F)n3)cc2F)cn1
2 | 67 | < 1.6 |  | CCn1nc(C2(C)CC2)cc1Nc1nc(-c2ccc(-n3cnc(C)c3)c(F)c2)cs1
3 | > 1000 |  |  | CCn1nccc1Nc1nc(-c2ccc(-n3cnc(C)c3)c(F)c2)cs1
4 | 394 |  |  | CCn1nc(C(C)C)cc1Nc1nc(-c2ccc(-n3cnc(C)c3)c(F)c2)cs1
5 | 272 | 2.3 (≈ 1.04 µg/mL) |  | COCCn1nc2c(c1Nc1nc(-c3ccc(-n4cnc(C)c4)c(F)c3)cs1)CCCC2
6 | 121 |  |  | Cc1cn(-c2ccc(-c3csc(Nc4cc(C(F)(F)F)nn4C(C)(C)C)n3)cc2F)cn1
7 | 229 |  |  | Cc1cn(-c2ccc(-c3csc(Nc4c5c(nn4CCCO)CCCC5)n3)cc2F)cn1
8 | 92 | < 1.6 |  | Cc1cn(-c2ccc(-c3csc(Nc4c5c(nn4C4CCC4)CCC5)n3)cc2F)cn1
9 | > 1000 |  |  | Cc1cn(-c2ccc(-c3csc(Nc4[nH]nc5c4CCCC5)n3)cc2F)cn1
10 | > 1000 | < 1.6 |  | Cc1cn(-c2ccc(-c3csc(Nc4c5c(nn4CCO)CCC5)n3)cc2F)cn1
11 | 216 |  |  | Cc1cn(-c2ccc(-c3csc(Nc4c5c(nn4C(C)(C)C)CCCC5)n3)cc2F)cn1
12 |  |  | 10 | CCc1cc(Nc2nc(-c3ccc(-n4cnc(C)c4)c(F)c3)cs2)c(C)cc1C

Second part, the compound before the results:

Row | SMILES | IC50 (Gamma-secretase) [nM] | solubility kinetic [1] [µM] | IC50 [2] [nM]
13 | Cc1cn(-c2ccc(-c3csc(Nc4c5c(nn4CCO)CCCC5)n3)cc2F)cn1 | 362 | 15 (≈ 6.58 µg/mL) | 
14 | Cc1cn(-c2ccc(-c3csc(Nc4c5c(nn4C4CCCC4)CCCC5)n3)cc2F)cn1 | 225 |  | 
15 | Cc1cn(-c2ccc(-c3csc(Nc4c5c(nn4CC(F)(F)F)CCC5)n3)cc2F)cn1 | 94 | < 1.6 | 
16 | CCn1nc(C(F)(F)F)cc1Nc1nc(-c2ccc(-n3cnc(C)c3)c(F)c2)cs1 | 110 | < 1.6 | 
17 | Cc1cn(-c2ccc(-c3csc(Nc4c5c(nn4C4CCC4)CCCC5)n3)cc2F)cn1 | 112 | < 1.6 | 
18 | Cc1cn(-c2ccc(-c3csc(Nc4cc(C(C)(C)C)nn4C)n3)cc2F)cn1 | 294 |  | 
19 | Cc1cn(-c2ccc(-c3csc(Nc4c5c(nn4C(C)C)CCCC5)n3)cc2F)cn1 | 195 |  | 
20 | Cc1cn(-c2ccc(-c3csc(Nc4c5c(nn4C4CCOCC4)CCCC5)n3)cc2F)cn1 | 766 |  | 
21 | CCCn1nc(C(C)(C)C)cc1Nc1nc(-c2ccc(-n3cnc(C)c3)c(F)c2)cs1 | 86 | < 1.6 | 
22 | Cc1cn(-c2ccc(-c3csc(Nc4cc(C(C)(C)C)nn4C(C)C)n3)cc2F)cn1 | 87 |  | 
